In one test the target is T1, CDK4 (Homo sapiens, UniProt P11802).
T1 construct: endogenous in cells
The experiment in a line: CDK4 degradation (DC50, Dmax). The test is classed as cell-based.

The subject of a further test is CDK4/6. In words: CDK4/6 degradation in A375 melanoma cells (FIG. 1). Particulars: result in words. The format is cell-based.
Another test has as its target T2, CDK6 (Homo sapiens, UniProt Q00534).
T2 construct: endogenous in cells
In words: CDK6 degradation (DC50, Dmax). The format is cell-based.

Test [1] has as its system mantle cell lymphoma cell (Mino or JeKo-1). The experiment in a line: Antiproliferative effect, MTS cell viability assay. The test is classed as cell-based. The note with it: 72 h; for IC50: mantle cell lymphoma cell (Mino or JeKo-1), MTS assay, read-out: IC50 (anti-proliferation); for inhibition of cell proliferation of Mino cells: 0-1 μM, result in words. Put shortly: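 MTS read-out (formazan absorbance at 490 nm) after 72 h exposure of Mino cells to 0–1 μM compound (0.0001, 0.001, 0.01, 0.1, 1 μM). Palbociclib and abemaciclib served as positive controls.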

A further test deals with Mino xenograft tumor. In words: In vivo tumor inhibition efficacy, Mino xenograft. The note with it: NOD/SCID mice, 20 mg/kg via oral gavage for 3 weeks; result in words. Here is the method:
Mino cells were obtained from American Type Culture Collection (ATCC, Manassas, VA). Cells were maintained in RPM 1640 (Life Technologies, Grand Island, NY) supplemented with 10% heat-inactivated fetal bovine serum (56° C. for 30 minutes), penicillin (10 000 units/mL; Sigma, St Louis, Mo), streptomycin (10 mg/mL; Sigma), gentamicin (50 mg/mL; Life Technologies), amphotericin B (25 mg/mL; Sigma), and L-glutamine (200 mM, 29.2 mg/mL; Life Technologies), culture, as previously described (29, 30). Mino cells (10 million) were subcutaneously implanted into the flank of NOD/SCID mice. When the average tumor volume reached approximately 300 cubic millimeters (mm^3), the following treatments were administered in cohorts of 5 mice for each treatment: vehicle alone, 20 mg/kg abemaciclib, 20 mg/kg Compound 90, or 20 mg/kg Compound 94 via oral gavage for 3 weeks. Tumor growth was monitored twice weekly by calipers and tumor volume was calculated using the equation: (½ (length×width^2)).

Some results are limits rather than exact numbers.

T2 sequence (Q00534 whole entry): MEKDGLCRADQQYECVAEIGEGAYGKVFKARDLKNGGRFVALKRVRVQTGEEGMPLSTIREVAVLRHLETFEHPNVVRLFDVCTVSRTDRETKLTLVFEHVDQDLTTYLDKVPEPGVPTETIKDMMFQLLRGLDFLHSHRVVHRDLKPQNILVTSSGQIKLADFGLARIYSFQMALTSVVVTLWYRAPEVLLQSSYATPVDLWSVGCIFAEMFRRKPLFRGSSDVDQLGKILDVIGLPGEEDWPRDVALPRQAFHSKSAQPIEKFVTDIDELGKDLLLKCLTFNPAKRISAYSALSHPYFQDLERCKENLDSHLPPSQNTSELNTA
T1 sequence (P11802 whole entry): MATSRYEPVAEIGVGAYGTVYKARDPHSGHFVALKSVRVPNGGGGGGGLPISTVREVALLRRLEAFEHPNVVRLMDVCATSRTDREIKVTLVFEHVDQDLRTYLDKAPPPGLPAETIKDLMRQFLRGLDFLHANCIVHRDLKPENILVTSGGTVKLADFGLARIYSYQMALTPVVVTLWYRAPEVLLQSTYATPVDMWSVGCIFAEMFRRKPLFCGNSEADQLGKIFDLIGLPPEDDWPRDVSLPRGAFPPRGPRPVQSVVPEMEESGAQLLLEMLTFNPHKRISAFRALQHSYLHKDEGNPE

On to `CC(=O)c1c(C)c2cnc(Nc3ccc(N4CCN(CCCNc5ccc6c(c5)C(=O)N(C5CCC(=O)NC5=O)C6=O)CC4)cn3)nc2n(C2CCCC2)c1=O` (stereo not shown) [Compound 49, 5-((3-(4-(6-((6-acetyl-8-cyclopentyl-5-methyl-7-oxo-7,8-dihydropyrido[2,3-d]pyrimidin-2-yl)amino)pyridin-3-yl)piperazin-1-yl)propyl)amino)-2-(2,6-dioxopiperidin-3-yl) isoindoline-1,3-dione], for which, on CDK4, the DC50 was below 50 nM and the maximal degradation (Dmax) is above 80%. In the test on CDK4/6, the CDK4/6 degradation entry is listed as “dose-dependent CDK4/6 degradation”. For the same molecule, on CDK6, the half-maximal degradation concentration (DC50) was below 50 nM and the maximal degradation (Dmax) is above 80%. In test [1], the IC50 is below 50 nM and the “inhibition of cell proliferation of Mino cells” value (“inhibition” below) was “dose-dependent inhibition of cell proliferation”.
Turning to `Cc1nc2c(F)cc(-c3nc(Nc4ccc(CN5CCN(CCCNc6ccc7c(c6)C(=O)N(C6CCC(=O)NC6=O)C7=O)CC5)cn4)ncc3F)cc2n1C(C)C` (stereo not shown) [Compound 73, 2-(2,6-dioxopiperidin-3-yl)-5-((3-(4-((6-((5-fluoro-4-(4-fluoro-1-isopropyl-2-methyl-1H-benzo[d]imidazol-6-yl)pyrimidin-2-yl)amino)pyridin-3-yl)methyl)piperazin-1-yl)propyl)amino) isoindoline-1,3-dione], at CDK4, the half-maximal degradation concentration (DC50) is below 50 nM and the greatest degradation seen (Dmax) is above 80%. Moreover, the CDK4/6 degradation result in the test on CDK4/6 is reported as “dose-dependent CDK4/6 degradation”. Moreover, on CDK6, the DC50 was below 50 nM and the Dmax was above 80%. Moreover, in test [1], the IC50 was below 50 nM and the “inhibition” value was “dose-dependent inhibition of cell proliferation”.
`Cc1nc2c(F)cc(-c3nc(Nc4ccc(CN5CCN(CCNc6ccc7c(c6)C(=O)N(C6CCC(=O)NC6=O)C7=O)CC5)cn4)ncc3F)cc2n1C(C)C` (stereo not shown) [Compound 90, 2-(2,6-dioxopiperidin-3-yl)-5-((2-(4-((6-((5-fluoro-4-(4-fluoro-1-isopropyl-2-methyl-1H-benzo[d]imidazol-6-yl)pyrimidin-2-yl)amino)pyridin-3-yl)methyl)piperazin-1-yl)ethyl)amino) isoindoline-1,3-dione]: in the test with Mino xenograft tumor, the “Mino xenograft tumor growth” value was “inhibiting Mino xenograft tumor growth”. Besides, on CDK4, the DC50 was below 50 nM and the Dmax is above 80%. On CDK6, this molecule showed a DC50 below 50 nM and a Dmax above 80%. In addition, in test [1], the IC50 was below 50 nM and the “inhibition” value is given as “dose-dependent inhibition of cell proliferation”.
In the case of `Cc1nc2c(F)cc(-c3nc(Nc4ccc(CN5CCN(CC6CN(c7ccc8c(c7)C(=O)N(C7CCC(=O)NC7=O)C8=O)C6)CC5)cn4)ncc3F)cc2n1C(C)C` (stereo not shown) [Compound 94, 2-(2,6-dioxopiperidin-3-yl)-5-(3-((4-((6-((5-fluoro-4-(4-fluoro-1-isopropyl-2-methyl-1H-benzo[d]imidazol-6-yl)pyrimidin-2-yl)amino)pyridin-3-yl)methyl)piperazin-1-yl)methyl)azetidin-1-yl)isoindoline-1,3-dione], the “Mino xenograft tumor growth” value with Mino xenograft tumor is recorded as “inhibiting Mino xenograft tumor growth”. Moreover, at CDK4, the DC50 is below 50 nM and the Dmax is above 80%. Also, on CDK6, the half-maximal degradation concentration (DC50) was below 50 nM and the Dmax was above 80%. Further, in test [1], the IC50 was below 50 nM and the “inhibition” value is “dose-dependent inhibition of cell proliferation”.
Regarding `CC(=O)c1c(C)c2cnc(Nc3ccc(N4CCN(C(=O)CNc5ccc6c(c5)C(=O)N(C5CCC(=O)NC5=O)C6=O)CC4)cn3)nc2n(C2CCCC2)c1=O` (stereo not shown) [Compound 104, 5-((2-(4-(6-((6-acetyl-8-cyclopentyl-5-methyl-7-oxo-7,8-dihydropyrido[2,3-d]pyrimidin-2-yl)amino)pyridin-3-yl)piperazin-1-yl)-2-oxoethyl)amino)-2-(2,6-dioxopiperidin-3-yl)isoindoline-1,3-dione], at CDK4, the DC50 lay within 50 to 200 nM and the Dmax was above 60%. For the same molecule, the CDK4/6 degradation result in the test on CDK4/6 is recorded as “dose-dependent CDK4/6 degradation”. Moreover, at CDK6, the DC50 was 50 to 200 nM and the greatest degradation seen (Dmax) is above 60%. In test [1], the IC50 was below 50 nM and the “inhibition” value is recorded as “dose-dependent inhibition of cell proliferation”.
At CDK4, `Cc1nc2c(F)cc(-c3nc(Nc4ccc(CC5CCN(C6CCN(c7ccc(NC8CCC(=O)NC8=O)cc7)CC6)CC5)cn4)ncc3F)cc2n1C(C)C` (stereo not shown) [Compound 172, 3-((4-(4-((6-((5-fluoro-4-(4-fluoro-1-isopropyl-2-methyl-1H-benzo[d]imidazol-6-yl)pyrimidin-2-yl)amino)pyridin-3-yl)methyl)-[1,4′-bipiperidin]-1′-yl)phenyl)amino) piperidine-2,6-dione] gave a 50% degradation concentration (DC50) of 50 to 200 nM and a maximal degradation (Dmax) above 80%. For the same molecule, at CDK6, the DC50 lay in the range of 50 to 200 nM and the greatest degradation seen (Dmax) was above 80%. For the same molecule, the IC50 in test [1] was below 50 nM.
